Values belong to the molecule of their own block, whether it stands above or below them.
Experiments:
MDA-MB175 cells = assay: MDA-MB175 cell proliferation, BrdU-labeling; format: cell-based; conditions: for IC50: compound alone or titrated on top of 4 nM Protein #21-His, read-out: cell proliferation inhibition constant IC50, MDA-MB175
Experimental: (§1) Protein #21 and Protein #21-His were expressed and purified as described in Example 1. Standard BrdU cell proliferation assays were performed, well-known to the person skilled in the art. Briefly, effects on cell proliferation of Protein #21-His, other compounds, or Protein #21-His in combination with other compounds, were determined by measuring DNA synthesis using BrdU-labeling (BrdU, Cell Proliferation ELISA, Roche). Briefly, 10000 cells were seeded per well in a 96 well plate in 100 μl complete medium and incubated for 24 hours. Protein #21-His and/or compounds were added for an additional 72 hours. BrdU for cell labeling was added for the last 24 hours. Labeled (proliferating) cells were detected according to the manufactures protocol. The data were analyzed using the Graph Pad prism software (log [c] vs. OD450-602 nm plot). Data were fitted using a non-linear regression fit (log(antagonist) vs. response—variable slope (four parameters)).

BT474 cells = assay: BT474 cell proliferation, BrdU-labeling; format: cell-based, human; conditions: for IC50: Homo sapiens, BT-474, compound alone or titrated on top of 2 nM Protein #21-His, read-out: cell proliferation inhibition constant IC50, BT474
Experimental: Protein #21-His and Protein #23-His, were expressed and purified as described in Example 1. Effects of the recombinant binding proteins on BT474 cell proliferation were determined by measuring DNA synthesis using BrdU-labeling (BrdU, Cell Proliferation ELISA, Roche). Briefly, 10000 BT474 cells were seeded per well in a 96 well plate in 100 ul complete medium and incubated for 24 hours. Recombinant binding proteins or controls were added for an additional 72 hours. BrdU for cell labeling was added for the last 24 hours. Labeled (proliferating) cells were detected according to the manufactures protocol. The data were analyzed using the GraphPad prism software, plotting log [c] on the x-axis against OD450-602 nm on the y-axis. Data were fitted using a non-linear regression fit (log(antagonist) vs. response—Variable slope (four parameters)) deriving IC50 values.
as §1

[1] = Pharmacokinetic analysis in mouse; format: in vivo
Experimental: The measurements shown in this example are the result of a half-life engineering effort as described in Example 11. Protein #21-His and Protein #23-His were expressed and purified as described in Example 1. The pharmacokinetic properties of the His-tagged proteins were assessed in mouse as described elsewhere (Zahnd, C., Kawe, M., Stumpp, M. T., de Pasquale, C., Tamaskovic, R., Nagy-Davidescu, G., Dreier, B., Schibli, R., Binz, H. K., Waibel, R., Plückthun, A., Cancer Res. 70, 1595-1605, 2010). […] Having SEQ ID NO: 16 present in the recombinant binding protein thus appears to be more favorable than having SEQ ID NO: 18 present.
Polypeptide linkers that link protein domains are well-known to the person skilled in the art. Gly-Ser-rich linkers are well-known from single-chain Fv antibody fragments, where they have proven to be most appropriate to link the two Fv polypeptide chains. […] Protein #26-His and Protein #27-His, were expressed and purified as described in Example 1. Pharmacokinetic analyses in mouse were performed as described in Example 8.
(§2) For the studies in this example Protein #21-His, Protein #24-His, Protein #28-His, Protein #29-His, and Protein #30-His were prepared according to Example 1. Protein #28-His was additionally PEGylated using a 40 kDa PEG moiety (NOF Sunbright GL2-400MA) by maleimid coupling of the PEG-moiety onto the free C-terminal cysteine of Protein #28-His, followed by purification to homogeneity using standard purification methods, procedures well known to the person skilled in the art. Pharmacokinetic analyses in mouse or cynomolgus monkey were performed as described in Examples 8 and 9.

[2] = Pharmacokinetic analysis in cynomolgus monkey; format: in vivo; conditions: 1 mg/kg, intravenous infusion
Experimental: The measurements shown in this example are the result of a half-life engineering effort as described in Example 11. Protein #21-His, Protein #23-His, and Protein #24-His were expressed and purified as described in Example 1. The pharmacokinetic properties of the proteins were assessed in cynomolgus monkey. Proteins were administered via intravenous infusion for 30 min at a target dose level of between 1 mg/kg to cynomolgus monkeys. Blood samples were collected pre-dose and again at selected time points, for example 5 min, 10 min, 0.5 hours, 1 hour, 2 hours, 4 hours, 8 hours, 12 hours, 24 hours, 48 hours, 72 hours, 96 hours, 120 hours, 144 hours, 168 hours, 192 hours, 216 hours, and 240 hours post-end of infusion (i.e. post-injection). The blood samples were allowed to stand at room temperature and were centrifuged to generate serum, followed by storage at −80° C. pending analyses. Pharmacokinetic parameters were determined using procedures well known to the person skilled in the art. Serum concentrations of proteins were determined by sandwich ELISA using a rabbit monoclonal anti-designed ankyrin repeat domain antibody as capture reagent and murine monoclonal anti-designed ankyrin repeat domain antibody as detection reagent, and using a standard curve. Pharmacokinetic parameters were determined using standard software such as Phoenix WinNonLin (Certara, Princeton, USA) or Graph Pad Prism (GraphPad Software, La Jolla, USA) and standard analyses such as non-compartmental analyses. […] Target mediated clearance is well-known to the person skilled in the art and is known from e.g. antibodies targeting HER2.
Similarly, Protein #21-His was expressed and purified as described in Example 1. The pharmacokinetic properties of the proteins were assessed in cynomolgus monkey as described above at 1 mg/kg, 5 mg/kg and 10 mg/kg.
Similar results are observed when testing Protein #21 (expressed and purified as described in Example 1). The pharmacokinetic properties of the proteins are assessed in cynomolgus monkey as described above at 1 mg/kg, 10 mg/kg and 100 mg/kg. Pharmacokinetic parameters are evaluated as described above.
as §2

[3] = Storage stability in PBS analysed by size-exclusion chromatography; format: physicochemical; conditions: 10 mg/ml in PBS, 1 month at −80° C.
Experimental: A storage stability improvement is also observed, when testing the storage stability of Protein #21 and Protein #22 (recombinant binding proteins consisting of the amino acid sequences corresponding to SEQ ID NOs: 21 and 22, respectively). Protein #21 and Protein #22 are prepared as described in Example 1, samples are concentrated to 10 mg/ml in PBS and stored for 1 month at −80° C. in or at 40° C. in glass vials, followed by analysis on standard size-exclusion chromatography.

IC50 (MDA-MB175 cells): 104 nM
Molecule: C=C1C[C@@H]2CC[C@@]34C[C@H]5O[C@H]6[C@@H](O3)[C@H]3O[C@H](CC[C@@H]3O[C@H]6[C@H]5O4)CC(=O)C[C@@H]3[C@@H](OC)[C@@H](C[C@H](O)CN)O[C@H]3C[C@H]3O[C@@H](CC[C@@H]1O2)C[C@@H](C)C3=C [Eribulin]
inhibition of MDA-MB175 cell proliferation, in words (MDA-MB175 cells; single agent or on top of suboptimal Protein #21-His (4 nM) or Protein #21 (10 nM)): very low potency
inhibition of BT474 cell proliferation, in words (BT474 cells; single agent or on top of suboptimal Protein #21-His (2 nM) or Protein #21 (1 nM)): not active

IC50 (MDA-MB175 cells): 263000 nM
Molecule: CO[C@H]1C[C@@H]2CC[C@@H](C)[C@@](O)(O2)C(=O)C(=O)N2CCCC[C@H]2C(=O)O[C@H]([C@H](C)C[C@@H]2CC[C@@H](OCCO)[C@H](OC)C2)CC(=O)[C@H](C)/C=C(\C)[C@@H](O)[C@@H](OC)C(=O)[C@H](C)C[C@H](C)/C=C/C=C/C=C/1C [Everolimus]

IC50 (MDA-MB175 cells): 203 nM
IC50 (BT474 cells): 176 nM
Molecule: CS(=O)(=O)N1CCN(Cc2cc3nc(-c4cccc5[nH]ncc45)nc(N4CCOCC4)c3s2)CC1 [GDC-0941]

IC50 (MDA-MB175 cells): 2810 nM
IC50 (BT474 cells): 765 nM
Molecule: CS(=O)(=O)CCNCc1ccc(-c2ccc3ncnc(Nc4ccc(OCc5cccc(F)c5)c(Cl)c4)c3c2)o1 [Lapatinib]

IC50 higher than that of Protein #21-His (BT474 cells; BT474 proliferation): 60%
B1: Protein #23-His: SEQ ID NO: 23 with a His-tag (SEQ ID NO: 1) fused to its N terminus (protein)
chain: MRGSHHHHHHGSDLGKKLLEAARAGQDDEVRELLKAGADVNAKDYFSHTPLHLAARNGHLKIVEVLLKAGADVNAKDFAGKTPLHLAANEGHLEIVEVLLKAGADVNAQDIFGKTPADIAADAGHEDIAEVLQKAAGSPTPTPTTPTPTPTTPTPTPTGSDLGVKLLWAAARGQDDEVRELLKAGADVNAKDFQGITPLHIAATNGHLEIVEVLLKAGADVNAKDITGETPLHHAADSGHLEIVEVLLKAGADVNAQDKAGVTPADLAAAWGHEDIAEVLQKAAGSPTPTPTTPTPTPTTPTPTPTGSDLGKKLLEAARAGQDDEVRELLKAGADVNAKDEYGLTPLYLATAHGHLEIVEVLLKAGADVNAVDAIGFTPLHLAAFIGHLEIAEVLLKAGADVNAQDKFGKTPADIAAGAGNEDIAEVLQKAAGSPTPTPTTPTPTPTTPTPTPTGSDLGKKLLEAARAGQDDEVRELLKAGADVNAKDYFSHTPLHLAARNGHLKIVEVLLKAGADVNAKDFAGKTPLHLAANEGHLEIVEVLLKAGADVNAQDIFGKTPADIAADAGHEDIAEVLQKAA
modifications: His-tag; Protein comprising four designed ankyrin repeat domains
% ID remaining after 48 hours [1]: 6.5 % ID
terminal half-life [1]: 24.7 h
terminal half-life [2]: 35 h

B2: Protein #24-His: SEQ ID NO: 24 with a His-tag (SEQ ID NO: 1) fused to its N terminus (protein)
chain: MRGSHHHHHHGSDLGKKLLEAARAGQDDEVRELLKAGADVNAKDYFSHTPLHLAARNGHLKIVEVLLKAGADVNAKDFAGKTPLHLAANEGHLEIVEVLLKAGADVNAQDIFGKTPADIAADAGHEDIAEVLQKAAGSPTPTPTTPTPTPTTPTPTPTGSDLGKKLLEAARAGQDDEVRELLKAGADVNAKDYFSHTPLHLAARNGHLKIVEVLLKAGADVNAKDFAGKTPLHLAANEGHLEIVEVLLKAGADVNAQDIFGKTPADIAADAGHEDIAEVLQKAAGSPTPTPTTPTPTPTTPTPTPTGSDLGIKLLFAAAKGQDDEVRELLKAGADVNAKDFQGVTPLHIAAQSGHLEIVEVLLKAGADVNAKDVTGDTPLHLAAQHGHLEIVEVLLKAGADVNAQDERGWTPADLAADWGHEDIAEVLQKAAGSPTPTPTTPTPTPTTPTPTPTGSDLGKKLLEAARAGQDDEVRELLKAGADVNAKDEYGLTPLYLATAHGHLEIVEVLLKAGADVNAVDAIGFTPLHLAAFIGHLEIAEVLLKAGADVNAQDKFGKTPADIAAGAGNEDIAEVLQKAA
modifications: His-tag; Protein comprising four designed ankyrin repeat domains
terminal half-life [2]: 45 h

B3: Protein #22: SEQ ID NO: 22; corresponding recombinant binding protein with serum albumin binding domains of SEQ ID NO: 13 (protein)
chain: GSDLGKKLLEAARAGQDDEVRELLKAGADVNAKDYFSHTPLHLAARNGHLKIVEVLLKAGADVNAKDFAGKTPLHLAANDGHLEIVEVLLKAGADVNAQDIFGKTPADIAADAGHEDIAEVLQKAAGSPTPTPTTPTPTPTTPTPTPTGSDLGIKLLFAAAKGQDDEVRELLKAGADVNAKDFQGVTPLHIAAQSGHLEIVEVLLKAGADVNAKDVTGDTPLHLAAQHGHLEIVEVLLKAGADVNAQDERGWTPADLAADWGHEDIAEVLQKAAGSPTPTPTTPTPTPTTPTPTPTGSDLGKKLLEAARAGQDDEVRELLKAGADVNAKDEYGLTPLYLATAHGHLEIVEVLLKAGADVNAVDAIGFTPLHLAAFIGHLEIAEVLLKAGADVNAQDKFGKTPADIAAGAGNEDIAEVLQKAAGSPTPTPTTPTPTPTTPTPTPTGSDLGKKLLEAARAGQDDEVRELLKAGADVNAKDYFSHTPLHLAARNGHLKIVEVLLKAGADVNAKDFAGKTPLHLAANDGHLEIVEVLLKAGADVNAQDIFGKTPADIAADAGHEDIAEVLQKAA
modifications: Protein comprising four designed ankyrin repeat domains
elution profiles upon storage at −80° C. [3]: equivalent elution profiles

Source: patent US20210130420A1, “RECOMBINANT BINDING PROTEINS TARGETING HER2 AND SERUM ALBUMIN, AND THEIR USES” (Molecular Partners AG, priority 2016, published 2021)
